According to patent US20170240592A1, “GADD45BETA/MKK7 INHIBITOR FOR THE TREATMENT OF A RESISTANT HAEMATOLOGICAL MALIGNANCY” (IMPERIAL INNOVATIONS LIMITED, priority 2014, published 2017):

How the values were obtained:
[1] = tested on: mouse LN cells and splenocytes; assay: trypan blue exclusion assay, survival of mouse LN cells and splenocytes; format: cell-based; settings: DTP3 100 μM, PS-1145 20 μM, 144 hr
Protocol: Values express the percentage of live cells present in the treated cultures relative to the live cells present in the respective untreated cultures and denote means±SD ([WM]; n=3). UT, untreated. […] Values express the percentage of inhibition of Gadd45β binding to MKK7 relative to the binding measured in the absence of peptide. […] Co-immunoprecipitations (IP) were performed using an anti-FLAG antibody (a-FLAG); western blots (WB) were developed using an anti-HA or an anti-MKK7 antibody, as shown.
[…] Cell viability was measured by using trypan blue exclusion or [^3H]thymidine incorporation assays performed in the manner described above (Mauro et al., 2011; Griffiths and Sundaram, 2011; Arnold et al., 2008), as indicated.

[2] = tested on: diffuse large B-cell lymphoma (DLBCL) cell lines; assay: PI nuclear staining assay, apoptotic cells in DLBCL cell lines; format: cell-based, human; settings: 10 μM, 6 days
Protocol: Current treatment of diffuse large B-cell lymphoma typically involves treatment with combination therapy, such as cyclophosphamide, doxorubicin, vincristine and prednisone (CHOP), or rituximab, cyclophosphamide, doxorubicin, vincristine and prednisone (R-CHOP). With those current treatments, many patients relapse and/or develop drug resistance at some point. The potential of the Gadd45β/MKK7 inhibitor DTP3 to operate in these settings was evaluated, by determining levels of apoptosis in diffuse large B-cell lymphoma cell lines known to be resistant to current therapies (HT, SU-DHL-8, U-2932, RC-K8 and RIVA, see for example Kaneko et al, Clinical Cancer Research, 2014, 20, p 1814-1820; Naylor et al, Cancer Research, 2011, Volume 71, p 2643-2653; Lyu et al, Cancer Research, 2013, Volume 73, Issue 8, Supplement 1), following treatment of those cells with DTP3. These cells have CARD11, A20 and/or MYD88 mutations and are also known to be resistant to agents such as Bruton's tyrosine kinase inhibitors, spleen tyrosine kinase inhibitors, PI3K inhibitors and/or protein kinase C inhibitors.
The percentages of apoptotic cells are depicted.
A comparison was made between the ability of DTP3 to kill various DLBCL cell lines by apoptosis in vitro. Cell lines HT, SU-DHL-8, U-2932 and RC-K8 which are known to be sensitive to DTP3; and insensitive cell lines RI-1, NU-DUL-1, TMD8, and HBL1 were used. Cell death was assessed using a standard propidium iodide (PI) nuclear staining assay followed by flow cytometry whereby the proportion of cells with a sub G1-DNA content was measured after cells had been exposed to DTP3 for 6 days at 10 μM. As controls, further populations of cells were left untreated (UT) or were treated with a scrambled D-tripeptide (SCR) for 6 days.
Apoptosis analyses were performed using propidium iodide (PI) nuclear labelling, as described previously (Riccardi and Nicoletti, 2006). Briefly, cells were seeded at a density of 2×10^5 cells/well into wells of either 24- or 48-well plates and cultured in the presence or absence of treatment, as shown. Cells were then fixed in 70% ice-cold ethanol for 16 hr, washed in PBS, and treated with ribonuclease A (50 μg/mL) for 30 min at room temperature. Samples were finally stained with PI (50 μg/mL) in 0.1% sodium citrate buffer for 2 to 4 hr at 4° C. in the dark, and data were acquired using a FACSCalibur automated system (Becton Dickinson) and analysed with FlowJo.

thermodynamic solubility = format: physicochemical; settings: PBS pH 7.4, at 37° C. for 14 days
Protocol: In vitro pharmacokinetic assays were performed according to established, in-house protocols and included: plasma stability (human), thermodynamic solubility (PBS pH 7.4, at 37° C. for 14 days), microsomal stability (human), plasma protein binding (PPB; mouse and human), and distribution coefficient (Log D). In vivo pharmacokinetic analyses were also performed at Cyprotex according to established, in-house protocols. Briefly, the peptides were dissolved in PBS and administered by single intravenous injection to CD1 male mice at the dose of 10 mg/kg (25-30 g of total body weight; n=3 mice per time point per compound). Blood samples were collected in heparinized tubes at up to 7 time points after this injection (i.e. 0.08, 0.25, 0.5, 1, 2, 4 and 8 hr), and the plasma concentrations of the test peptide were determined at each time point by LC-MS/MS, using a five-point standard curve covering a peptide concentration range from 3 to 3,000 ng/mL. Standard curves were prepared using blank plasma matrices and treated in the same manner as the test samples. […] Values were calculated from the data of the peptide plasma concentration versus time curves using a non-compartmental model analysis, as described elsewhere (Groulx, 2006; Landaw and Di Stefano 3rd, 1982). […]

FIG. 14 = assay: FIG. 14
Source text: Table printed on a drawing sheet, FIG. 14
Values denote means±SD (n=3).
First reader's note: Each cell holds the value ± error and its unit together.

CC(=O)N[C@H](Cc1ccc(O)cc1)C(=O)N[C@H](CCCNC(=N)N)C(=O)N[C@H](Cc1ccccc1)C(N)=O [DTP3, Acetyl-Tyr-Arg-Phe-NH2]
toxicity to normal cells compared with PS-1145 [1]: far lesser toxicity to normal cells than the IKKβ inhibitor PS-1145 | apoptosis in DLBCL cell lines resistant to conventional DLBCL treatments ([2]; HT, SU-DHL-8, U-2932, RC-K8): effective in causing apoptosis | apoptosis in sensitive DLBCL cell lines ([2]; HT, SU-DHL-8, U-2932, RC-K8): substantial increases in apoptosis | apoptosis in insensitive DLBCL cell lines ([2]; RI-1, NU-DUL-1, TMD8, HBL1): no increase in apoptosis | aqueous solubility (thermodynamic solubility): high aqueous solubility | CL (FIG. 14): 27.13 ± 4.09 mL/min/kg | Vd (FIG. 14): 2.80 ± 1.26 L/kg
